The source of these data is patent US6399593B1, “Cyclic regimens using cyclic urea and cyclic amide derivatives” (Wyeth, priority 1999, dated 2002).

Each structure is given as a SMILES string.

For the test, the system named is T47D cells. The test can be described thus: T47D cell proliferation assay (BrdU incorporation). The conditions noted are these: second print headed Table 3, individual studies (Exp 1-3). In kind it is cell-based. Here is the method:
The objective of this assay is the determination of progestational and antiprogestational potency by using a cell proliferation assay in T47D cells. A compound's effect on DNA synthesis in T47D cells is measured.
DMEM:F12 (1:1) (GIBCO, BRL) supplemented with 10% (v/v) fetal bovine serum (not heat-inactivated), 100 U/ml penicillin, […], and 2 mM GlutaMax (GIBCO, BRL).
Minimum Essential Medium (MEM) (#51200-038GIBCO, BRL) phenol red-free supplemented with 0.5% charcoal stripped fetal bovine serum, 100 U/ml penicillin, 200 mg/ml streptomycin, and 2 mM GlutaMax (GIBCO, BRL).
Stock T47D cells are maintained in growth medium. For BrdU incorporation assay, cells are plated in 96-well plates (Falcon, Becton Dickinson Labware) at 10,000 cells/well in growth medium. […]
At the end of BrdU labeling, the medium is removed and BrdU incorporation is measured using a cell proliferation ELISA kit (#RPN 250, Amersham Life Science) according to manufacturer's instructions. […] Then 25 μl of 1 M sulfuric acid is added to each well to stop color reaction and optical density is read in a plate reader at 450 nm within 5 min.
Square root-transformed data are used for analysis of variance and nonlinear dose response curve fitting for both agonist and antagonist modes. […] EC50 or IC50 values are calculated from the retransformed values. […]
(Uptake of a labelled nucleoside into DNA is a usual measure of proliferation.)

By EC50 is commonly meant the concentration needed to bring the measured effect to its halfway point. Take `CC(=O)O[C@]1(C(C)=O)CC[C@H]2[C@@H]3C[C@H](C)C4=CC(=O)CC[C@]4(C)[C@H]3CC[C@@]21C` [MPA, medroxyprogesterone acetate]: the midpoint of the response, the EC50, lay at 0.017 nM.
